Data taken from patent US11312721B2 (priority 2015, dated 2022).
pKi: −log10 of the molar value.

molecular target: T1, GABAA receptors (α5β2γ2) (Homo sapiens, UniProt P18507+P31644); experiment: Positive allosteric modulator activity: potentiation of EC20 GABA current in oocytes; type: cell-based; settings: read-out: GABA α5 functional potentiation
T1 construct: expressed in transfected cells
Procedure: On day 1, 1 ng/32 nL of GABAA α5β2γ2 cDNA was injected into one oocyte. Test starts on day 2. The cDNA injected to the oocytes was a mix of alpha, beta and gamma, their ratio is 1:1:10 (by weight) and the total weight of the mixed 3 subunits to be injected in one oocyte was 1 ng in 32 nl volume. The injected oocytes can also be tested on day 3. In such case, the cDNA amount injected to the oocytes should be reduced by 20%.
1). 8 oocytes were placed in 8 chambers of OpusXpress and superfused with Modified Barth's Saline (MBS) at 3 mL/min. Glass electrodes back-filled with 3M KCl (0.5-3 megaohms) were used.
1). Repeat the above steps 1), 2) and 3) in the control test.
2). […] Divide Itest by IGABA to obtain potentiation (%).
3). Discard all tested oocytes, new oocytes were used and the above steps 1) and 2) were repeated to test second concentration of the same compound. Each oocyte was used for only one concentration test for a single test compound. The steps were repeated for other test compounds.

T1 sequence (P31644 32-462): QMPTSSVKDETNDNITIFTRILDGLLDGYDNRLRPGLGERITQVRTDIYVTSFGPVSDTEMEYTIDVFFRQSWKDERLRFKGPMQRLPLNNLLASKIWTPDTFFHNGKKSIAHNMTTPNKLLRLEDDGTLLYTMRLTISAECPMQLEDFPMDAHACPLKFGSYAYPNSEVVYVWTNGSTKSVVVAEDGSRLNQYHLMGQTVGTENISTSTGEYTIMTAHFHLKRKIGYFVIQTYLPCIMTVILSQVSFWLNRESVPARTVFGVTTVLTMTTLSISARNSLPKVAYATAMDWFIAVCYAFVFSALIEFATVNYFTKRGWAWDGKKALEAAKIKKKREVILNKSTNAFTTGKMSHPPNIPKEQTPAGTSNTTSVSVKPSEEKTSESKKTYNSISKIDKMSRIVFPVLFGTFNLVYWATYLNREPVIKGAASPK
T1 sequence (P47870 25-512 partner limits assumed): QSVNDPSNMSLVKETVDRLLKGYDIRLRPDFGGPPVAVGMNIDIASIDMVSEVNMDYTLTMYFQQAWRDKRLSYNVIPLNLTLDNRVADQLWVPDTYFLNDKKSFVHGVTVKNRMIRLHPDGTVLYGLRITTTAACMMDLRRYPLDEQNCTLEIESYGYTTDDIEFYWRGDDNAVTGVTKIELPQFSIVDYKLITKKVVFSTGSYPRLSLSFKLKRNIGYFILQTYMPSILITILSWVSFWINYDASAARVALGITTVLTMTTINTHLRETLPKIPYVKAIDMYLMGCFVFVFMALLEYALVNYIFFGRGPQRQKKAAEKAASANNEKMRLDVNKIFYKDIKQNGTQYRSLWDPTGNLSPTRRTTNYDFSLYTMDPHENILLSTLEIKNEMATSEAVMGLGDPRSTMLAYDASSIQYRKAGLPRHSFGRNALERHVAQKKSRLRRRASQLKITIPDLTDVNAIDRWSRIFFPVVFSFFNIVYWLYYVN
T1 sequence (P18507 40-475): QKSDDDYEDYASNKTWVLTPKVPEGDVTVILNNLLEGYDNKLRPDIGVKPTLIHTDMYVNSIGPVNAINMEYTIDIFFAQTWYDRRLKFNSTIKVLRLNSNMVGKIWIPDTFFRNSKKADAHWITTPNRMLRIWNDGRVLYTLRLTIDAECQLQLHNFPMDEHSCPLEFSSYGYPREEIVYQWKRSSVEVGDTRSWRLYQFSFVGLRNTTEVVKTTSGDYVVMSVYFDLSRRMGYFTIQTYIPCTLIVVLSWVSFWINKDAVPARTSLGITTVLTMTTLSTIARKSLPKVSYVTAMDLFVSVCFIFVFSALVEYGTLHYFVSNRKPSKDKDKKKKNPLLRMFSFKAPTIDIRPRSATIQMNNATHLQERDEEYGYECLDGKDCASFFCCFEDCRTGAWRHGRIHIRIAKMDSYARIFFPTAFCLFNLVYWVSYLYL

Cc1nnn2c1Cc1c(-c3noc(C(C)C)n3)ncn1-c1ccc(F)cc1-2 [Compound 149] and Cc1nc(-c2ncn3c2Cc2c(C)nnn2-c2cc(F)ccc2-3)no1 [Compound 145] cannot be ordered by activation at 0.1 µM: > 50% for the first, > 50% for the second.

First: COc1ccc2c(c1)-c1nnc(COc3cccc4ccccc34)n1Cc1c(-c3noc(C(C)C)n3)ncn1-2 [Compound 177]
Second: CCc1nc(-c2ncn3c2Cn2c(COc4ccccc4)nnc2-c2cc(F)ccc2-3)no1 [Compound 158]
The activation at 0.1 µM of the first is higher: > 50% for the first, 20 to 49% for the second.

CCOC(=O)c1ncn2c1Cc1c(Cc3ccc(Cl)cc3)nnn1-c1cc(F)ccc1-2 [Compound 45] and CCOC(=O)c1ncn2c1Cc1c(COc3ccccc3)nnn1-c1cc(OC)ccc1-2 [Compound 9] fall in the same range of activation at 0.1 µM: 20 to 49% for the first, 20 to 49% for the second.

Cc1nc(-c2ncn3c2Cc2c(C)nnn2-c2ccccc2-3)no1 [Compound 127] and Cc1nnn2c1Cc1c(-c3nc(C(C)C)no3)ncn1-c1ccccc1-2 [Compound 132] fall in the same range of activation at 0.1 µM: 20 to 49% for the first, 20 to 49% for the second.

CCOC(=O)c1ncn2c1Cn1c(COc3ccccc3)nnc1-c1cc(F)ccc1-2 [Compound 137] and CCOC(=O)c1ncn2c1Cn1c(COc3ccccc3)nnc1-c1cc(OC)ccc1-2 [Compound 55] fall in the same range of activation at 0.1 µM: 20 to 49% for the first, 20 to 49% for the second.

COc1ccc2c(c1)-c1nnc(COc3ccccc3)n1Cc1c(C(=O)OC(C)C)ncn1-2 [Compound 120] and COc1ccc2c(c1)-c1nnc(COc3ccc(F)cc3)n1Cc1c(C#N)ncn1-2 [Compound 191] fall in the same range of activation at 0.1 µM: 20 to 49% for the first, 20 to 49% for the second.

First: Cc1noc(-c2ncn3c2Cc2c(Cc4ccccc4)nnn2-c2cc(F)ccc2-3)n1 [Compound 109]
Second: Cc1nnn2c1Cc1c(C(=O)OCC(F)(F)F)ncn1-c1ccc(F)cc1-2 [Compound 114]
The activation at 0.1 µM of the first is lower: 20 to 49% for the first, > 50% for the second.

CCOC(=O)c1ncn2c1Cc1c(COc3cccc(OC)c3)nnn1-c1cc(OC)ccc1-2 [Compound 11] and Cc1nnn2c1Cc1c(C(=O)OC(C)C)ncn1-c1ccccc1-2 [Compound 153] fall in the same range of activation at 0.1 µM: 20 to 49% for the first, 20 to 49% for the second.

molecular target: T2, α5β3γ2 GABAA receptors (Ltk cells) (Homo sapiens, UniProt P18507+P31644); experiment: Binding activity on GABAAR: inhibition of [3H]Ro15-1788 binding; settings: not given
T2 construct: membranes
Procedure: Tissue culture and Membrane Preparation: The binding was performed on Ltk cells stably expressing GABAA receptors: α1β1γ2, α2β3γ2, α3β3γ2 and α5β3γ2 (provided by Merck Co., NJ, USA). Cells were seeded in 100 mm culture plates in DMEM/F12 medium containing 10% serum and antibiotics in 5% CO2 and allowed to grow for 1-2 days. GABAAR expression was then induced by dexamethasone as follows: 0.5 μM for 1 day for α5 containing and 2 μM for 3 days for α1, α2 and α3 containing GABAARs. After induction, cells were collected by scraping into Dulbecco's Phosphate buffered saline (DPBS, pH 7.4, Invitrogen, Carlsbad, Calif., USA) and centrifuged at 150×g for 10 min. The pellet was washed twice by re-suspension and centrifugation. The cell pellets from at least 5 different preps were combined, suspended in the binding assay buffer (50 mM KH2PO4; 1 mM EDTA; 0.2 M KCl, pH 7.4) and membranes prepared by sonication (3-5 times, 30 sec) using Branson Sonifier 150 (G. Heinmann, Germany). Protein content was determined using BCA assay (Bio-Rad Labs, Reinach, Switzerland) with Bovine Serum Albumin (Sigma Aldrich, St. Louis, Mo., USA) as the standard. Aliquots were prepared and stored at −20° C. for further use in binding assays.
Ligand Binding: Saturation binding curves were obtained by incubating membranes with increasing concentrations (0.01-8 nM) of [^3H]Ro15-1788 (Flumazepil, 75-85 Ci/mmol, PerkinElmer, MA, USA), with nonspecific binding measured in the presence of 10 μM diazepam.
All binding assays were performed for 1 h at 4° C. in assay buffer. The total assay volume was 0.5 ml containing 0.2 mg/ml protein for α5 and 0.4 mg/ml for α1, α2, and α3 containing GABAAR membranes. Incubations were terminated by filtration through GF/B filters using a 24-Cell Harvestor (Brandel, Gaithersburg, Md., USA) followed by 3 washes with ice-cold assay buffer. Filters were transferred to scintillation vials, 5 ml scintillation liquid added, vortex-mixed and kept in dark. Next day, radioactivity was obtained using a scintillation counter (Beckman Coulter, Brea, Calif., USA). All assays were performed in triplicate.
Data Analyses: Saturation and inhibition curves were obtained using GraphPad Prism software (GraphPad Software, Inc., CA, USA).

T2 sequence (P31644 32-462): as the sequence (P31644 32-462) above
T2 sequence (P28472 26-473 partner): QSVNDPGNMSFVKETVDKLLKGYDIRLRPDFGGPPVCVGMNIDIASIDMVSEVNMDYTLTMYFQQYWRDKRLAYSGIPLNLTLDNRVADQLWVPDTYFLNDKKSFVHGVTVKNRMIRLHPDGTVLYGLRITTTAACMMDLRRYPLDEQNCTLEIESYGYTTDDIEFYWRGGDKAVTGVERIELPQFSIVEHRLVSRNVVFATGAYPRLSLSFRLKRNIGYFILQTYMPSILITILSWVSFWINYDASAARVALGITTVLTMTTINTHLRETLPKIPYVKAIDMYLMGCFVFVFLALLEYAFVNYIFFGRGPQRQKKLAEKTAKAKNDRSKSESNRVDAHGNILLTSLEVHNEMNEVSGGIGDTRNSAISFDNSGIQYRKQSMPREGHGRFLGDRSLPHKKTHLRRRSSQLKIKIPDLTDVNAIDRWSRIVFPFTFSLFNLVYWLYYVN
T2 sequence (P18507 40-475): as the sequence (P18507 40-475) above

COCc1nnc2n1Cc1c(-c3ncc(C)o3)ncn1-c1ccc(Cl)cc1-2 [Compound 296] and COCc1nnc2n1Cc1c(-c3nc(C)co3)ncn1-c1ccc(Cl)cc1-2 [Compound 244] cannot be ordered by pKi: > 7.00 for the first, > 7.00 for the second.

COc1ccc2c(c1)-n1nncc1Cc1c(C3=N[C@@H](c4ccccc4)CO3)ncn1-2 [Compound 289] and COc1ccc2c(c1)-n1nncc1Cc1c(C3=N[C@H](C)CO3)ncn1-2 [Compound 291] cannot be ordered by pKi: > 7.00 for the first, > 7.00 for the second.

COCc1nnc2n1Cc1c(C3=N[C@H](C)CO3)ncn1-c1ccc(Cl)cc1-2 [Compound 282] and CCOCc1nnc2n1Cc1c(C3=NC(C)CO3)ncn1-c1ccc(Cl)cc1-2 (centres unmarked) [Compound 259] cannot be ordered by pKi: > 7.00 for the first, > 7.00 for the second.

CCOCc1nnc2n1Cc1c(C3=N[C@@H](c4ccccc4)CO3)ncn1-c1ccc(Cl)cc1-2 [Compound 275] and CCOCc1nnc2n1Cc1c(C3=NC(c4ccccc4)CO3)ncn1-c1ccc(Cl)cc1-2 (centres unmarked) [Compound 260] cannot be ordered by pKi: > 7.00 for the first, > 7.00 for the second.

CC(C)OCc1nnc2n1Cc1c(C3=N[C@@H](c4ccccc4)CO3)ncn1-c1ccc(Cl)cc1-2 [Compound 270] and CC(C)OCc1nnc2n1Cc1c(C3=N[C@H](c4ccccc4)CO3)ncn1-c1ccc(Cl)cc1-2 [Compound 268] cannot be ordered by pKi: > 7.00 for the first, > 7.00 for the second.

COCc1nnc2n1Cc1c(Br)ncn1-c1ccc(Cl)cc1-2 [Compound 217] and CCOCc1nnc2n1Cc1c(Br)ncn1-c1ccc(Cl)cc1-2 [Compound 216] cannot be ordered by pKi: > 7.00 for the first, > 7.00 for the second.

N#Cc1ncn2c1Cn1c(COc3ccccc3)nnc1-c1cc(Cl)ccc1-2 [Compound 197] and COCc1nnc2n1Cc1c(C#Cc3ccccc3)ncn1-c1ccc(Cl)cc1-2 [Compound 285] cannot be ordered by pKi: > 7.00 for the first, > 7.00 for the second.

CCOC(=O)c1ncn2c1Cc1c(Cc3ccccc3)nnn1-c1cc(C)ccc1-2 [Compound 101] and CCOC(=O)c1ncn2c1Cc1c(Cc3ccccc3Cl)nnn1-c1cc(C)ccc1-2 [Compound 54] cannot be ordered by pKi: > 7.00 for the first, > 7.00 for the second.

C#Cc1ncn2c1Cc1c(C(=O)c3ccc(F)cc3)nnn1-c1cc(OC)ccc1-2 [Compound 218] and COc1ccc2c(c1)-n1nnc(COc3ccccc3F)c1Cc1c(C#N)ncn1-2 [Compound 223] cannot be ordered by pKi: > 7.00 for the first, > 7.00 for the second.

COCc1nnc2n1Cc1c(-c3nc(-c4ccccc4)co3)ncn1-c1ccc(Cl)cc1-2 [Compound 245] and CC(C)OCc1nnc2n1Cc1c(-c3nc(-c4ccccc4)co3)ncn1-c1ccc(Cl)cc1-2 [Compound 276] cannot be ordered by pKi: > 7.00 for the first, > 7.00 for the second.

COCc1nnc2n1Cc1c(C3=NC[C@H](C)O3)ncn1-c1ccc(Cl)cc1-2 [Compound 295] and COCc1nnc2n1Cc1c(C3=NC[C@@H](C)O3)ncn1-c1ccc(Cl)cc1-2 [Compound 294] cannot be ordered by pKi: > 7.00 for the first, > 7.00 for the second.

COc1ccc2c(c1)-n1nnc(Cc3cccc(Cl)c3)c1Cc1c(C#N)ncn1-2 [Compound 209] and COc1ccc2c(c1)-n1nnc(Cc3ccccc3Cl)c1Cc1c(C#N)ncn1-2 [Compound 208] cannot be ordered by pKi: > 7.00 for the first, > 7.00 for the second.

COc1ccc2c(c1)-n1nncc1Cc1c(-c3nc(C)no3)ncn1-2 [Compound 258] and COc1ccc2c(c1)-n1nnc(C)c1Cc1c(-c3nc(C(C)C)no3)ncn1-2 [Compound 277] cannot be ordered by pKi: > 7.00 for the first, > 7.00 for the second.

C#Cc1ccc2c(c1)-c1nnc(COC)n1Cc1c(C3=N[C@H](CC(C)C)CO3)ncn1-2 [Compound 280] and C#Cc1ccc2c(c1)-c1nnc(COC)n1Cc1c(C3=N[C@@H](c4ccccc4)CO3)ncn1-2 [Compound 301] cannot be ordered by pKi: > 7.00 for the first, > 7.00 for the second.

FC(F)(F)COCc1nnc2n1Cc1c(C3=N[C@@H](c4ccccc4)CO3)ncn1-c1ccc(Cl)cc1-2 [Compound 304] and COCc1nnc2n1Cc1c(C3=N[C@H](c4ccccc4)CO3)ncn1-c1ccc(Cl)cc1-2 [Compound 263] cannot be ordered by pKi: > 7.00 for the first, > 7.00 for the second.

First: C#CCNC(=O)c1ncn2c1Cn1c(COC)nnc1-c1cc(Cl)ccc1-2 [Compound 234]
Second: C#Cc1ncn2c1Cn1c(COCC)nnc1-c1cc(Cl)ccc1-2 [Compound 261]
The pKi of the first is lower: < 6.00 for the first, > 7.00 for the second. The second binds more tightly here.

COc1ccc2c(c1)-c1nnc(COc3cccnc3)n1Cc1c(Br)ncn1-2 [Compound 235] and C#Cc1ncn2c1Cn1c(COc3cccnc3)nnc1-c1cc(OC)ccc1-2 [Compound 241] cannot be ordered by pKi: > 7.00 for the first, > 7.00 for the second.

COCc1nnc2n1Cc1c(-c3nc(C(C)C)no3)ncn1-c1ccc(Cl)cc1-2 [Compound 206] and COCc1nnc2n1Cc1c(-c3cc(C)no3)ncn1-c1ccc(Cl)cc1-2 [Compound 233] cannot be ordered by pKi: > 7.00 for the first, > 7.00 for the second.

COc1ccc2c(c1)-c1nnc(COc3ccccc3)n1Cc1c(Br)ncn1-2 [Compound 232] and C#Cc1ncn2c1Cn1c(COc3ccccc3)nnc1-c1cc(OC)ccc1-2 [Compound 236] cannot be ordered by pKi: > 7.00 for the first, > 7.00 for the second.

C#Cc1ncn2c1Cn1c(COC(C)C)nnc1-c1cc(Cl)ccc1-2 [Compound 288] and COCc1nnc2n1Cc1c(C3=NC(c4ccccc4)CO3)ncn1-c1ccc(Cl)cc1-2 (centres unmarked) [Compound 242] cannot be ordered by pKi: > 7.00 for the first, > 7.00 for the second.

CCOC(=O)c1ncn2c1Cc1c(Cc3ccc(F)cc3)nnn1-c1cc(F)ccc1-2 [Compound 46] and CCOC(=O)c1ncn2c1Cc1c(C)nnn1-c1cc(C)ccc1-2 [Compound 102] cannot be ordered by pKi: > 7.00 for the first, > 7.00 for the second.

N#Cc1ncn2c1Cc1c(COc3cccc(F)c3)nnn1-c1cc(Cl)ccc1-2 [Compound 227] and CC(C)c1nc(-c2ncn3c2Cc2c(C(=O)c4ccc(F)cc4)nnn2-c2ccc(F)cc2-3)no1 [Compound 230] cannot be ordered by pKi: > 7.00 for the first, > 7.00 for the second.

Cc1cccc(C)c1OCc1nnc2n1Cc1c(-c3noc(C(C)C)n3)ncn1-c1ccc(F)cc1-2 [Compound 190] and C#Cc1ccc2c(c1)-c1nnc(COC)n1Cc1c(-c3nc(-c4ccccc4)co3)ncn1-2 [Compound 302] cannot be ordered by pKi: > 7.00 for the first, > 7.00 for the second.
